As a reminder, the Papp A→B is how fast a substance crosses the layer from the apical side. Lower therefore signals poor permeation. What is called efflux ratio is a quotient of directional permeabilities that is used to spot active efflux.

This data set deals with T1, human BCRP (Homo sapiens, UniProt Q9UNQ0).
T1 construct: expressed in transfected cells; host or cells: MDCKII (Madin-Darby canine kidney) cells
T1 sequence (Q9UNQ0 1-655): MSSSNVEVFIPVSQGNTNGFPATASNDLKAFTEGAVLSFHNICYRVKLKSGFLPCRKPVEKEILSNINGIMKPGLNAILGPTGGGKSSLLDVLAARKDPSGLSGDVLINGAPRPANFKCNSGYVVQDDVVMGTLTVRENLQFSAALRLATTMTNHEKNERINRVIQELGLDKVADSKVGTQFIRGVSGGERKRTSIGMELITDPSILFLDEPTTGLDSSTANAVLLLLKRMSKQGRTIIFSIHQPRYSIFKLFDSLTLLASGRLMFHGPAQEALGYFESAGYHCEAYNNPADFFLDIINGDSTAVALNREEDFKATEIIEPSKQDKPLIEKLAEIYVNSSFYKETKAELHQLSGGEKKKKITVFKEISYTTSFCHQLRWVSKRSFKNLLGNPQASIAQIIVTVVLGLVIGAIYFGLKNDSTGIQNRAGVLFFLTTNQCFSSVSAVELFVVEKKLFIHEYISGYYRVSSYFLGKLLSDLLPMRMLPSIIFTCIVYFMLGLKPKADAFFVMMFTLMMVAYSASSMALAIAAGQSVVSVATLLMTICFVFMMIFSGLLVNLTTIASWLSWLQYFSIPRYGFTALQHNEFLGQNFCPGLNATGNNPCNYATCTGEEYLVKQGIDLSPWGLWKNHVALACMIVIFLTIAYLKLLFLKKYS
In words: MDCK assay BCRP: permeability across MDCK-BCRP monolayers. The format is in vitro ADME. Particulars: for Papp A→B: MDCK-BCRP monolayers, apical-to-basal, pH 7.4, 1 or 10 μM; for efflux ratio: pH 7.4, MDCK-BCRP, Papp (b-a) divided by Papp (a-b). As to the method: The MDCK assays provide information on the potential of a compound to pass the blood brain barrier. Permeability measurements across polarized, confluent MDCK-MDR1 cell monolayers grown on permeable filter supports are used as an in vitro absorption model: apparent permeability coefficients (PE) of the compounds across the MDCK-MDR1 cell monolayers are measured (pH 7.4, 37° C.) in apical-to-basal (AB) and basal-to-apical (BA) transport direction. The AB permeability (PEAB) represents drug absorption from the blood into the brain and the BA permeability (PEBA) drug efflux from the brain back into the blood via both, passive permeability as well as active transport mechanisms mediated by efflux and uptake transporters that are expressed on the MDCK-MDR1 cells, predominantly by the overexpressed human MDR1. Identical or similar permeabilities in both transport directions indicate passive permeation, vectorial permeability points to additional active transport mechanisms. Higher PEBA than PEAB (PEBA/PEAB >5) indicates the involvement of active efflux mediated by MDR1, which might compromise the goal to achieve sufficient brain exposure. Therefore, this assay provides valuable support for selection of compounds applicable for further in vivo testing. High permeability not limited by efflux at the blood brain barrier is a favourable characteristic for compounds that are to be used for drugs acting primarily in the CNS. Similar concepts are applicable to the MDCK BCRP assay and its interpretation; consequently, to ensure high permeability at the blood brain barrier, it is highly preferred to minimize the efflux (efflux <5) at both MDR1 and BCRP transporters.
Apparent permeability coefficients (Papp) of the compounds across the MDCK-BCRP monolayers (MDCKII cells transfected with human BCRP cDNA expression plasmid) are measured in apical-to-basal (AB) and basal-to-apical (BA) direction. MDCK-BCRP cells (6×10^5 cells/cm^2) are seeded on filter inserts (Corning, Transwell, polycarbonate, 0.4 μm pore size) and cultured for 9 to 10 days. Compounds dissolved in DMSO stock solution (1-20 mM) are diluted with HTP-4 aqueous buffer (128.13 mM NaCl, 5.36 mM KCl, 1 mM MgSO4, 1.8 mM CaCl2, 4.17 mM NaHCO3, 1.19 mM Na2HPO4, 0.41 mM NaH2PO4, 15 mM HEPES, 20 mM glucose, pH 7.4) supplemented with 0.25% BSA to prepare the transport solutions (final concentration: 1 or 10 μM, final DMSO <=0.5%). The transport solution is applied to the apical or basolateral donor side for measuring A-B or B-A permeability, respectively. The receiver side contains HTP-4 buffer supplemented with 0.25% BSA. Samples are collected at the start and end of experiment from the donor and at various time intervals for up to 2 hours also from the receiver side for concentration measurement by HPLC-MS/MS. Sampled receiver volumes are replaced with fresh receiver solution. Efflux ratio is calculated dividing the Papp (b-a) values by the Papp (a-b) values.

In the case of `O=C(OCc1cccc(F)c1)N1CCO[C@H](c2nc3cccnc3[nH]2)C1` [Example 1], the Papp A→B came to 38 ×10⁻⁶ cm/s and the efflux ratio stood at 2.4.

Regarding `O=C(OCc1ccc(F)cc1)N1CCO[C@H](c2nc3cccnc3[nH]2)C1` [Example 2], the apical-to-basolateral permeability (Papp A→B) worked out at 34 ×10⁻⁶ cm/s and the efflux ratio amounted to 2.9.

As for `Cc1ccccc1COC(=O)N1CCO[C@H](c2nc3cccnc3[nH]2)C1` [Example 8], the Papp A→B is 46 ×10⁻⁶ cm/s and the efflux ratio was 1.8.

In the case of `Cc1cccc(F)c1COC(=O)N1CCO[C@H](c2nc3cccnc3[nH]2)C1` [Example 10], the Papp A→B amounted to 40 ×10⁻⁶ cm/s and the efflux ratio stood at 2.2.

Consider `Cc1ccc(COC(=O)N2CCO[C@H](c3nc4cccnc4[nH]3)C2)c(F)c1` [Example 11], for which the Papp A→B was 63 ×10⁻⁶ cm/s and the efflux ratio worked out at 1.

For `Cc1ccc(COC(=O)N2CCO[C@H](c3nc4cccnc4[nH]3)C2)cc1F` [Example 12], the Papp A→B was 69 ×10⁻⁶ cm/s and the efflux ratio is 1.

As to `O=C(OCc1ccc(F)cc1Cl)N1CCO[C@H](c2nc3cccnc3[nH]2)C1` [Example 13], the Papp A→B was 72 ×10⁻⁶ cm/s and the efflux ratio worked out at 0.9.

`O=C(OCc1ccccc1Cl)N1CCO[C@H](c2nc3cccnc3[nH]2)C1` [Example 14]: the Papp A→B came to 68 ×10⁻⁶ cm/s and the efflux ratio worked out at 1.2.

Turning to `O=C(OCc1cccc(F)c1F)N1CCO[C@H](c2nc3cccnc3[nH]2)C1` [Example 15], the apical-to-basolateral permeability (Papp A→B) was 33 ×10⁻⁶ cm/s and the efflux ratio amounted to 2.8.

`O=C(OCc1c(F)cccc1F)N1CCO[C@H](c2nc3cccnc3[nH]2)C1` [Example 16]: the Papp A→B amounted to 49 ×10⁻⁶ cm/s and the efflux ratio was 2.1.

For the compound `O=C(OCc1ccccc1)N1CCO[C@H](c2nc3cccnc3[nH]2)C1` [Example 17], the Papp A→B worked out at 37 ×10⁻⁶ cm/s and the efflux ratio is 2.5.

With `Cc1ccc(COC(=O)N2CCO[C@H](c3nc4cccnc4[nH]3)C2)cc1` [Example 18], the Papp A→B was 53 ×10⁻⁶ cm/s and the efflux ratio stood at 1.2.

As to `O=C(OCc1ccc(F)cc1F)N1CCO[C@H](c2nc3cccnc3[nH]2)C1` [Example 19], the Papp A→B was found to be 61 ×10⁻⁶ cm/s and the efflux ratio was determined as 1.6.

Turning to `O=C(OCc1ccc(C(F)F)cc1)N1CCO[C@H](c2nc3cccnc3[nH]2)C1` [Example 26], the Papp A→B worked out at 24 ×10⁻⁶ cm/s and the efflux ratio amounted to 2.7.

As to `O=C(OCc1ccccc1F)N1CCO[C@H](c2nc3cccnc3[nH]2)C1` [Example 27], the Papp A→B stood at 24 ×10⁻⁶ cm/s and the efflux ratio came to 5.2.

Regarding `O=C(OCc1ccc(Cl)cc1)N1CCO[C@H](c2nc3cccnc3[nH]2)C1` [Example 28], the Papp A→B stood at 56 ×10⁻⁶ cm/s and the efflux ratio is 1.2.

Take `Cc1ccc(COC(=O)N2CCO[C@H](c3nc4cc(F)cnc4[nH]3)C2)cc1` [Example 31]: the Papp A→B came out at 85 ×10⁻⁶ cm/s and the efflux ratio came out at 0.7.

These data come from US10849907B2, “Imidazopyridine derivatives and the use thereof as medicament” (Boehringer Ingelheim International GmbH, priority 2017, dated 2020).
